Assay results taken from patent publication US12466822B2, “Heterocyclic compounds as immunomodulators” (Incyte Corporation, priority 2016, dated 2025).

Molecular target: T1, PD-1/PD-L1 protein/protein interaction (recombinant human PD-L1 protein (19-238), recombinant human PD-1 protein (25-167)) (Homo sapiens, UniProt Q9NZQ7)
T1 construct: Recombinant human PD-L1 protein (19-238) with a His-tag at the C-terminus; purchased AcroBiosystems PD1-H5229 (PD-L1-His); PD1-H5257 (PD-1-Fc)
Assay: PD-1/PD-L1 Homogeneous Time-Resolved Fluorescence (HTRF) Binding Assay
Settings: 25° C., PBS buffer (pH 7.4), 40 minutes preincubation with inhibitors
Method: The assays were conducted in a standard black 384-well polystyrene plate with a final volume of 20 μL. Inhibitors were first serially diluted in DMSO and then added to the plate wells before the addition of other reaction components. The final concentration of DMSO in the assay was 1%. The assays were carried out at 25° C. in the PBS buffer (pH 7.4) with 0.05% Tween-20 and 0.1% BSA. Recombinant human PD-L1 protein (19-238) with a His-tag at the C-terminus was purchased from AcroBiosystems (PD1-H5229). Recombinant human PD-1 protein (25-167) with Fc tag at the C-terminus was also purchased from AcroBiosystems (PD1-H5257). PD-L1 and PD-1 proteins were diluted in the assay buffer and 10 μL was added to the plate well. Plates were centrifuged and proteins were preincubated with inhibitors for 40 minutes. The incubation was followed by the addition of 10 μL of HTRF detection buffer supplemented with Europium cryptate-labeled anti-human IgG (PerkinElmer-AD0212) specific for Fc and anti-His antibody conjugated to SureLight®-Allophycocyanin (APC, PerkinElmer-AD0059H). After centrifugation, the plate was incubated at 25° C. for 60 min. before reading on a PHERAstar FS plate reader (665 nm/620 nm ratio). Final concentrations in the assay were […], 10 nM PD-L1, 1 nM europium anti-human IgG and 20 nM anti-His-Allophycocyanin. IC50 determination was performed by fitting the curve of percent control activity versus the log of the inhibitor concentration using the GraphPad Prism 5.0 software.

T1 sequence (Q9NZQ7 19-238): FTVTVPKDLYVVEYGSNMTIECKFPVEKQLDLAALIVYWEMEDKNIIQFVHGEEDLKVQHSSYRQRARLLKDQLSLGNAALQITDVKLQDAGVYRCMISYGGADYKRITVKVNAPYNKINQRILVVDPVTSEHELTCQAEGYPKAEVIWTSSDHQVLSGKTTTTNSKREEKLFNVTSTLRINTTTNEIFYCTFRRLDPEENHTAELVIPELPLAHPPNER

IC50, ≤ 10 nM:
Cc1c(Nc2nccc3cc(CN4CC[C@@H](O)C4)cnc23)cccc1-c1cccc(NC(=O)c2ccc(CN3CC[C@@H](O)C3)cn2)c1Cl [Example 6, N-(2-chloro-3′-((3-(((R)-3-hydroxypyrrolidin-1-yl)methyl)-1,7-naphthyridin-8-yl)amino)-2′-methyl-[1,1′-biphenyl]-3-yl)-5-(((R)-3-hydroxypyrrolidin-1-yl)methyl)picolinamide]
Cc1c(Nc2nccc3cc(CN4CC[C@](C)(O)C4)cnc23)cccc1-c1cccc(NC(=O)c2nc3c(n2C)CCN(C2CCC(C(=O)O)CC2)C3)c1Cl (stereo partly drawn) [Example 58, (S)-4-(2-(2-chloro-3′-(3-((3-hydroxy-3-methylpyrrolidin-1-yl)methyl)-1,7-naphthyridin-8-ylamino)-2′-methylbiphenyl-3-ylcarbamoyl)-1-methyl-6,7-dihydro-1H-imidazo[4,5-c]pyridin-5(4H)-yl)cyclohexanecarboxylic acid]
Cc1c(Nc2nccc3cc(CN4CC[C@@H](C(=O)O)C4)cnc23)cccc1-c1cccc(Nc2nccc3cc(C4CCCN4)cnc23)c1C (stereo partly drawn) [Example 71, (3R)-1-((8-(2,2′-dimethyl-3′-(3-(pyrrolidin-2-yl)-1,7-naphthyridin-8-ylamino)biphenyl-3-ylamino)-1,7-naphthyridin-3-yl)methyl)pyrrolidine-3-carboxylic acid]
Cc1c(Nc2nccc3cc(CN4CC[C@@H](O)C4)cnc23)cccc1-c1cccc(NC(=O)c2nc3c(n2C)CCN(C[C@H]2CC[C@@H](C(=O)O)CC2)C3)c1Cl [Example 48, cis-4-((2-(2-chloro-3′-(3-(((R)-3-hydroxypyrrolidin-1-yl)methyl)-1,7-naphthyridin-8-ylamino)-2′-methylbiphenyl-3-ylcarbamoyl)-1-methyl-6,7-dihydro-1H-imidazo[4,5-c]pyridin-5(4H)-yl)methyl)cyclohexanecarboxylic acid]
Cc1c(Nc2nccc3cc(CNCCO)cnc23)cccc1-c1cccc(NC(=O)c2ccc(CNCCO)cn2)c1F [Example 4, N-(2-fluoro-3′-((3-(((2-hydroxyethyl)amino)methyl)-1,7-naphthyridin-8-yl)amino)-2′-methyl-[1,1′-biphenyl]-3-yl)-5-(((2-hydroxyethyl)amino)methyl)picolinamide]
Cc1c(Nc2nccc3cc(CN4CC[C@@H](O)C4)cnc23)cccc1-c1cccc(-c2nc3c(o2)CN(C(=O)CN2CC[C@@H](C(=O)O)C2)C3)c1C [Example 41, (R)-1-(2-(2-(3′-((3-(((R)-3-hydroxypyrrolidin-1-yl)methyl)-1,7-naphthyridin-8-yl)amino)-2,2′-dimethyl-[1,1′-biphenyl]-3-yl)-4,6-dihydro-5H-pyrrolo[3,4-d]oxazol-5-yl)-2-oxoethyl)pyrrolidine-3-carboxylic acid]
Cc1c(Nc2nccc3cc(CNCCO)cnc23)cccc1-c1cccc(NC(=O)c2ccc(CN3CCCC[C@H]3C(=O)O)cn2)c1F [Example 3, (S)-1-((6-((2-fluoro-3′-((3-(((2-hydroxyethyl)amino)methyl)-1,7-naphthyridin-8-yl)amino)-2′-methyl-[1,1′-biphenyl]-3-yl)carbamoyl)pyridin-3-yl)methyl)piperidine-2-carboxylic acid]
Cc1c(NC(=O)c2nc3c(n2C)CCN(CC[C@H]2CC[C@H](C(=O)O)CC2)C3)cccc1-c1cccc(Nc2nccc3cc(CN4CC[C@@H](O)C4)cnc23)c1C [Example 63, trans-4-(2-(2-(3′-(3-(((R)-3-hydroxypyrrolidin-1-yl)methyl)-1,7-naphthyridin-8-ylamino)-2,2′-dimethylbiphenyl-3-ylcarbamoyl)-1-methyl-6,7-dihydro-1H-imidazo[4,5-c]pyridin-5(4H)-yl)ethyl)cyclohexanecarboxylic acid]
Cc1c(Nc2ncnc3cc(CN4CC[C@@H](O)C4)cnc23)cccc1-c1cccc(NC(=O)c2nc3c(n2C)CCN(C2CCC(C)(C(=O)O)CC2)C3)c1Cl (single isomer, unassigned) [Example 68-peak2]
Cc1c(-c2nc3c(s2)CN(C(=O)CN(C)C)C3)cccc1-c1cccc(Nc2nccc3cc(CN4CC[C@@H](C(=O)O)C4)cnc23)c1Cl [Example 89, (R)-1-((8-((2-chloro-3′-(5-(dimethylglycyl)-5,6-dihydro-4H-pyrrolo[3,4-d]thiazol-2-yl)-2′-methyl-[1,1′-biphenyl]-3-yl)amino)-1,7-naphthyridin-3-yl)methyl)pyrrolidine-3-carboxylic acid]
Cc1c(Nc2nccc3cc(CN4CC(C(=O)O)C4)cnc23)cccc1-c1cccc(Nc2nccc3cc(CN4CC[C@@H](O)C4)cnc23)c1Cl [Example 75, (R)-1-((8-((2′-chloro-3′-((3-((3-hydroxypyrrolidin-1-yl)methyl)-1,7-naphthyridin-8-yl)amino)-2-methyl-[1,1′-biphenyl]-3-yl)amino)-1,7-naphthyridin-3-yl)methyl)azetidine-3-carboxylic acid]
Cc1c(Nc2nccc3cc(CN4CC[C@@H](O)C4)cnc23)cccc1-c1cccc(Nc2nccc3cc(CN4CC[C@@H](C(=O)O)C4)cnc23)c1Cl [Example 79, (R)-1-((8-((2-chloro-3′-((3-(((R)-3-hydroxypyrrolidin-1-yl)methyl)-1,7-naphthyridin-8-yl)amino)-2′-methyl-[1,1′-biphenyl]-3-yl)amino)-1,7-naphthyridin-3-yl)methyl)pyrrolidine-3-carboxylic acid]
Cc1c(Nc2nccc3cc(CN4CC[C@@H](O)C4)cnc23)cccc1-c1cccc(Nc2nccc3cc(CN4CC[C@@H](O)C4)cnc23)c1C [Example 20, (3R,3′R)-1,1′-((((2,2′-dimethyl-[1,1′-biphenyl]-3,3′-diyl)bis(azanediyl))bis(1,7-naphthyridine-8,3-diyl))bis(methylene))bis(pyrrolidin-3-ol)]
Cc1c(Nc2nccc3cc(CN4CC[C@@H](C(=O)O)C4)cnc23)cccc1-c1cccc(-c2nc3c(s2)CNCC3)c1C [Example 34, (R)-1-((8-((2,2′-dimethyl-3′-(4,5,6,7-tetrahydrothiazolo[5,4-c]pyridin-2-yl)-[1,1′-biphenyl]-3-yl)amino)-1,7-naphthyridin-3-yl)methyl)pyrrolidine-3-carboxylic acid]
Cc1c(Nc2nccc3cc(CN4CC[C@@H](O)C4)cnc23)cccc1-c1cccc(Nc2ncnc3cc(CNC[C@@H](C)O)cnc23)c1C [Example 29, (R)-1-((8-(3′-(7-(((R)-2-hydroxypropylamino)methyl)pyrido[3,2-d]pyrimidin-4-ylamino)-2,2′-dimethylbiphenyl-3-ylamino)-1,7-naphthyridin-3-yl)methyl)pyrrolidin-3-ol]
Cc1c(Nc2nccc3cc(CN4CC[C@@](C)(O)C4)cnc23)cccc1-c1cccc(NC(=O)c2nc3c(n2C)CCN(C[C@H]2CC[C@@H](C(=O)O)CC2)C3)c1Cl [Example 56, cis 4-((2-(2-chloro-3′-(3-(((R)-3-hydroxy-3-methylpyrrolidin-1-yl)methyl)-1,7-naphthyridin-8-ylamino)-2′-methylbiphenyl-3-ylcarbamoyl)-1-methyl-6,7-dihydro-1H-imidazo[4,5-c]pyridin-5(4H)-yl)methyl)cyclohexanecarboxylic acid]
Cc1c(Nc2nccc3cc(CN4CC[C@@H](O)C4)cnc23)cccc1-c1cccc(Nc2ncnc3cc(CNCC(C)(C)O)cnc23)c1C [Example 30, (R)-1-((8-(3′-(7-((2-hydroxy-2-methylpropylamino)methyl)pyrido[3,2-d]pyrimidin-4-ylamino)-2,2′-dimethylbiphenyl-3-ylamino)-1,7-naphthyridin-3-yl)methyl)pyrrolidin-3-ol]
Cc1c(Nc2nccc3cc(CN4CCCC4)cnc23)cccc1-c1cccc(NC(=O)c2nc3c(n2C)CCN(C[C@H]2CC[C@@H](C(=O)O)CC2)C3)c1Cl [Example 49, cis-4-((2-(2-chloro-2′-methyl-3′-(3-(pyrrolidin-1-ylmethyl)-1,7-naphthyridin-8-ylamino)biphenyl-3-ylcarbamoyl)-1-methyl-6,7-dihydro-1H-imidazo[4,5-c]pyridin-5(4H)-yl)methyl)cyclohexanecarboxylic acid]
Cc1c(Nc2nccc3cc(CN4CC[C@H](O)C4)cnc23)cccc1-c1cccc(-c2nc3c(o2)CN(C(=O)CN(C)C)C3)c1C [Example 38, (S)-2-(dimethylamino)-1-(2-(3′-((3-((3-hydroxypyrrolidin-1-yl)methyl)-1,7-naphthyridin-8-yl)amino)-2,2′-dimethyl-[1,1′-biphenyl]-3-yl)-4,6-dihydro-5H-pyrrolo[3,4-d]oxazol-5-yl)ethan-1-one]
Cc1c(Nc2nccc3cc(CN4CC[C@@H](C(=O)O)C4)cnc23)cccc1-c1cccc(NC(=O)c2nc3c(n2C)CCN(C)C3)c1Cl [Example 31, (R)-1-((8-(2′-chloro-3′-(1,5-dimethyl-4,5,6,7-tetrahydro-1H-imidazo[4,5-c]pyridine-2-carboxamido)-2-methylbiphenyl-3-ylamino)-1,7-naphthyridin-3-yl)methyl)pyrrolidine-3-carboxylic acid]
